Measurements published in US8324191B2, “Combined calcium, magnesium and vitamin D supplements” (Biolink Life Sciences, Inc, priority 2008, dated 2012).
Like-named read-outs stand apart in the source and are kept apart here.

Key:
[1] = conventional magnesium salts; Firoz and Graber 2001; cited from earlier work
[2] = 250-750 mg magnesium daily as magnesium hydroxide, 2 years; cited from earlier work
[3] = cited from earlier work
[4] = doses of 1 g calcium citrate daily; cited from earlier work
[5] = 1 gram calcium/day as the citrate, 1,471 healthy older women; cited from earlier work
[6] = Availability of magnesium and lipoate ions from aqueous suspensions of the salt; assay type: physicochemical; details: aqueous solutions, pH about 4 to about 8
From the text: Thus, its bioavailability is unexpectedly high, as compared to conventional, water-insoluble magnesium salts. Further, R-(+)-alpha-lipoic acid is a widely distributed physiological antioxidant that combines free radical scavenging properties with an ability, after intracellular reduction to dihydrolipoic acid, to regenerate the levels of other nonenzymatic and enzymatic antioxidants, including glutathione (GSH), ascorbate, α-tocopherol, catalase and GSH peroxidase. The physiological form of R-(+)-α-lipoate, the R-(+)-enantiomer, is present in all eukaryotic and prokaryotic cells.

[7] = cited from earlier work; remark: listed apart in the source

[Cl-].[Cl-].[Mg+2] [Magnesium chloride]
Bioavailability (as fractional absorption of administered dose) [1]: 12%

[Mg+2].[OH-].[OH-] [Magnesium hydroxide]
Bioavailability (as fractional absorption of administered dose) [1]: 4%
bone density [2]: significant increase in bone density
fractures [2]: prevented fractures

CC(O)C(=O)[O-].CC(O)C(=O)[O-].[Mg+2] (stereo not drawn) [Magnesium lactate]
Bioavailability (as fractional absorption of administered dose) [1]: 12%

[O]=[Mg] [Magnesium oxide]
Bioavailability (as fractional absorption of administered dose) [1]: 4%

O=C(O)CCCCC1CCSS1 (stereo not drawn) [R-(+)-alpha-lipoic acid]
storage life ([3]; closed and sealed amber container at refrigerated temperatures): within a few months

O=C(O)CCCCC1CCSS1 (stereo not drawn) [RS-Alpha-lipoic acid, RS-alpha-lipoic acid]
storage life ([3]; closed and sealed amber container at room temperature): a year or more

O=C([O-])CC(O)(CC(=O)[O-])C(=O)[O-].O=C([O-])CC(O)(CC(=O)[O-])C(=O)[O-].[Ca+2].[Ca+2].[Ca+2] [calcium citrate]
risk for myocardial infarction, stroke and death [4]: increase risk

[Ca] [calcium]
effect on bone density [5]: beneficial effect on bone density

Magnesium R-(+)-alpha-lipoate
availability of magnesium and R-(+)-alpha-lipoate ions from suspensions [6]: available

Magnesium citrate
Bioavailability (as fractional absorption of administered dose) [1]: 12%

vitamin D
fracture benefit ([7]; 400 IU per day): failed to demonstrate any fracture benefit
reduction of risk of any non-vertebral fracture ([7]; 700 to 800 IU per day): 23%
reduction of risk of hip fracture ([7]; 700 to 800 IU per day): 26%
